US20220175860A1, “DUNALIELLA ALGA PREPARATION FOR PREVENTION AND/OR TREATMENT OF A NEURODEGENERATIVE DISEASE, A DISORDER ASSOCIATED WITH PROTEIN MISFOLDING AND COGNITIVE DECLINE” (TEL HASHOMER MEDICAL RESEARCH INFRASTRUCTURE AND SERVICES …, priority 2019, published 2022)
Like-named read-outs stand apart in the source and are kept apart here.

Key:
[1] = tested on: blood brain barrier (BBB) in-vitro model (endothelial cells / glial cells); assay: In vitro blood brain barrier (BBB) cell culture model, HPLC of carotenoids; format: in vitro ADME, porcine brain endothelial cells, new born rat glial cells
Experimental: FIG. 5A-FIG. 5C: Schematic drawings of the in vitro blood brain barrier (BBB) cell culture system. The model consists of a monolayer of endothelial cells, forming tight junctions that are grown on a microporous membrane filter culture insert (luminal side) and glial cells seeded at the abluminal side of the filter. Low Density Lipoprotein (LDL, 100 μl 1,600 μg/ml) from a healthy volunteer is added to the luminal side. Cells are incubated for 24 hours and then samples are collected from the luminal and abluminal side and analyzed.
An in vitro model of the blood brain barrier (BBB) was used. The model consists of a monolayer of endothelial cells, obtained from primary cultures of endothelial cells established from freshly collected porcine brain forming tight junctions that are grown on a microporous membrane filter culture insert (the “Luminal side” in FIG. 6) and of a monolayer of glial cells extracted from new born rats' cortex that are seeded at the abluminal side of the filter (the “Abluminal side” in FIG. 6). Low density lipoprotein (LDL, 100 μl, 1,600 μg/ml from a healthy volunteer) was added to the luminal side. Cells were then incubated for 24 hours and thereafter samples were collected and analyzed using HPLC. The model was prepared by first seeding the glial cells on the abluminal side of a filter, a week later, the above-described endothelial cells were seeded on the luminal side of the filter and two days later LDL was added to the luminal side of the filter as indicated above.
LDL was obtained from healthy volunteers by sequential ultracentrifugation (density, 1.063 g/ml), and the concentration was determined by the Lowry method.
Using the “BBB in-vitro model” described above and schematically shown in FIG. 5A, 5B, 5C, glial and endothelial cells were incubated for 24 hours in the presence of LDL (inherently containing all-trans and 9-cis β-carotene) and then samples were collected and carotenoids were extracted and analyzed using HPLC.

[2] = Tissue carotenoids by HPLC in Tg2576 mice; format: in vivo; settings: Tg2576 study, mice fed Dunaliella diet vs control diet
Source text: In order to assess whether carotenoid level was higher in brain tissue of Tg2576 mice fed with the Dunaliella diet as compared to the control group, mice brain carotenoids were extracted and then measured using HPLC.

[3] = Tissue carotenoids by HPLC in 5×FAD mice; settings: for Amount in brain tissues: 5×FAD mice fed Dunaliella algae diet vs regular diet, HPLC; for Accumulation in liver, fat and brain tissues: 5×FAD study, Dunaliella diet group vs control group
[4] = carotenoids in human LDL added to luminal side, 24 hours incubation, HPLC

| Crossing of the BBB (luminal to abluminal side) [1] | Tissue levels (liver, fat, brain) [2] | Crossing of the BBB (luminal to abluminal side) [1, 4] | Amount in brain tissues [3] | Accumulation in liver, fat and brain tissues [3] | Compound |
| --- | --- | --- | --- | --- | --- |
| did not cross the BBB | – | – | – | – | CC(C)=CCC/C(C)=C/C=C/C(C)=C/C=C/C(C)=C/C=C/C=C(C)/C=C/C=C(C)/C=C/C=C(\C)CCC=C(C)C [lycopene, reference compound] |
| – | much higher levels | crossed the BBB | significantly higher amounts | much higher levels | CC1=C(/C=C/C(C)=C/C=C/C(C)=C/C=C/C=C(C)/C=C/C=C(C)/C=C/C2=C(C)CCCC2(C)C)C(C)(C)CCC1 [all-trans β Carotene, all-trans β-carotene] |
| – | much higher levels | crossed the BBB | significantly higher amounts | much higher levels | CC1=C(/C=C/C(C)=C\C=C\C(C)=C\C=C\C=C(C)\C=C\C=C(C)\C=C\C2=C(C)CCCC2(C)C)C(C)(C)CCC1 [9-cis β Carotene, 9-cis β-carotene] |
